# Test results as given in US20050142537A1, “System and method for rapid detection of metabolic deviations of a biological sample” (priority 2003, published 2005).
# Tested on: E. coli
# Assay: Impedance-based rapid detection of metabolic deviations (sensitivity testing) of a biological sample containing E. coli
# Assay type: cell-based
# Description: There is shown in FIG. 1, system 10 for rapid detection of metabolic deviations of a biological sample of this invention. System 10 includes control chamber 12 which receives biological sample 14 via fluidic channel 15. Control chamber 12 also includes spaced electrodes 16 and 18 which are used to measure the impedance of biological sample 14 disposed in control chamber 12, as discussed in further detail below. Biological sample 14 may be blood, urine, sputum, feces, spinal fluid, food, water, a solution containing one or more microbial organisms, or any other biological sample known to those skilled in the art. The microbial organisms in biological sample 14 may include any biological cell, such as Escherichia coli, Staphylococcus aureus, Enterococcus faecalis, Streptococcus pneumoniae, Neisseria gonorrhoeae, Mycobacterium tuberculosis, Saccharomyces cerevisiae, or any other microbial organism known to those skilled in the art. […]
# System 10 includes measuring and detection device 28 connected to electrodes 16 and 18 of control chamber 12 by lines 29 and 31 and electrodes 24 and 26 of target chamber 22 by lines 33 and 35. […] Measuring and detection device 28 then compares the measured second impedances to the measured first impedances to determine if biological reagent 20 has induced any metabolic deviations to biological sample 14 in target chamber 22. […]
structure (smiles),measurement,setting,value
CCn1cc(C(=O)O)c(=O)c2cc(F)c(N3CCNCC3)cc21 [Norfloxacin],time at which sensitivity of the biological sample to the biological reagent is detected,FIG. 7 dashed line 404,about 40 minutes
same,sensitivity of the biological sample to the biological reagent,"measured impedance response vs control sample, FIG. 7 curve 402 vs curve 400",sensitive
